Among the test systems are SR leukemia; HCT-15 colon; NCI-H226 lung; NCI-H460 lung; OVCAR-4 ovarian; SF-539 CNS; SF-295 CNS; ACHN renal; UO-31 renal; NCI-H23 lung.
Experiment in all cases: NCI tumour cell line growth inhibition, 48 h

15 molecules from PubChem BioAssay (NCI) can be followed below.

The structures appear in SMILES notation.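 Compound exposure: 48 hours, 5 concentrations, 96-well plates. TGI: concentration producing complete growth inhibition.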

Consider `CN(c1ccc(Cl)cc1)S(=O)(=O)c1cccc([N+](=O)[O-])c1`, for which the TGI in the assay on SR leukemia, with HCT-15 colon, with NCI-H226 lung, with NCI-H460 lung, in the assay with OVCAR-4 ovarian and in the assay with SF-539 CNS was greater than 100 µM each time. The TGI in the assay on SF-295 CNS, with ACHN renal, with UO-31 renal and in the assay with NCI-H23 lung was greater than 100 µM each time.

Turning to `CC1(CCCO)CCCCCC(C)(CCCO)C1=O` (centres undefined), the TGI in the assay with SR leukemia, with HCT-15 colon, in the assay on NCI-H226 lung, in the assay on NCI-H460 lung, in the assay on OVCAR-4 ovarian and with SF-295 CNS was greater than 100 µM each time. In addition, the TGI with ACHN renal, in the assay on UO-31 renal and in the assay on NCI-H23 lung was greater than 100 µM in each case.

As for `C=CC(Br)(CBr)CCC(Cl)C(C)C` (centres undefined), the TGI in the assay with SR leukemia came to 2.38 µM; with NCI-H226 lung, 27.7 µM; in the assay on NCI-H460 lung, 4.3 µM; in the assay with OVCAR-4 ovarian, 3.29 µM; in the assay on SF-539 CNS, 3.84 µM; in the assay on SF-295 CNS, 3.9 µM. In addition, the TGI was 8.49 µM in the assay with ACHN renal, 3.08 µM in the assay on UO-31 renal and 8.82 µM in the assay on NCI-H23 lung.

Take `CC(=O)OCCn1cnc2nc(Nc3ccccc3)nc(Cl)c21`: the TGI with SR leukemia, in the assay on HCT-15 colon, with NCI-H226 lung, with NCI-H460 lung, in the assay with OVCAR-4 ovarian and in the assay with SF-539 CNS was greater than 100 µM throughout. Besides, the TGI in the assay with SF-295 CNS, in the assay with ACHN renal and in the assay with NCI-H23 lung was greater than 100 µM each time.

On to `COc1ccc2nc3ccc(OC)cc3c(S(=O)CCCl)c2c1` (centres undefined), for which the TGI in the assay with SR leukemia was greater than 22.7 µM; in the assay with HCT-15 colon it was greater than 20.6 µM; in the assay with NCI-H226 lung it was 33.9 µM; with NCI-H460 lung it was greater than 63.7 µM; in the assay with OVCAR-4 ovarian, 16.4 µM; with SF-539 CNS, 4.59 µM. In addition, the TGI in the assay with SF-295 CNS is 45.2 µM; with ACHN renal, 3.62 µM; in the assay with NCI-H23 lung it was 36.1 µM.

As for `COc1nc(C(=O)NNC(=O)c2nc(OC)c3ccccc3c2-c2ccccc2)c(-c2ccccc2)c2ccccc12`, the TGI with SR leukemia, in the assay with HCT-15 colon, in the assay on NCI-H226 lung, in the assay on OVCAR-4 ovarian, in the assay on SF-295 CNS and in the assay on ACHN renal was greater than 100 µM each time. Further, the TGI in the assay on UO-31 renal and in the assay on NCI-H23 lung was greater than 100 µM in each case.

For the molecule `O=c1[nH]c(-c2ccc3ccccc3c2)nc2ccccc12`, the TGI in the assay with SR leukemia is greater than 100 µM; in the assay on HCT-15 colon, greater than 100 µM; in the assay on NCI-H226 lung, greater than 100 µM; with NCI-H460 lung it was greater than 100 µM; in the assay on OVCAR-4 ovarian, 9.73 µM; in the assay with SF-295 CNS it was greater than 100 µM. Also, the TGI with ACHN renal was 80.2 µM; with UO-31 renal, 60.9 µM; in the assay on NCI-H23 lung, greater than 100 µM.

On to `CN(C)Cc1cc(C(=O)/C=C/c2ccc(Cl)cc2)cc(CN(C)C)c1O`, for which the TGI was found to be 45.7 µM in the assay on SR leukemia; 54.4 µM in the assay with HCT-15 colon; 49.8 µM in the assay on NCI-H226 lung; 21.8 µM with NCI-H460 lung; 38.7 µM in the assay on SF-539 CNS; 26 µM in the assay with SF-295 CNS. Besides, the TGI in the assay with ACHN renal was determined as 16.1 µM; in the assay with UO-31 renal, 19.9 µM; in the assay with NCI-H23 lung, 39.4 µM.

For `COc1ccc(C(=O)Sc2c(-c3ccccc3)c(=O)n(-c3ccccc3)c(=S)n2-c2ccccc2)cc1`, the TGI is greater than 100 µM with SR leukemia; greater than 100 µM in the assay with HCT-15 colon; 58.7 µM in the assay with NCI-H226 lung; greater than 100 µM in the assay on NCI-H460 lung; greater than 100 µM with OVCAR-4 ovarian; 35.6 µM with SF-539 CNS. The TGI with SF-295 CNS, in the assay on ACHN renal and in the assay with NCI-H23 lung was greater than 100 µM in each case.

In the case of `O=[N+]([O-])c1ccccc1S(=O)(=O)c1cc(Cl)cc2c1NCCC2`, the TGI with SR leukemia, with HCT-15 colon, with NCI-H226 lung, with NCI-H460 lung, in the assay on OVCAR-4 ovarian and with SF-539 CNS was greater than 100 µM in each case. The TGI with SF-295 CNS, in the assay with ACHN renal and with UO-31 renal was greater than 100 µM each time.

With `C[C@@H]1C[C@H]2[C@@H]3CCC4=CC(=O)C=C[C@]4(C)[C@@]3(Cl)[C@@H](Cl)C[C@]2(C)[C@@]1(O)C(=O)COP(=O)(O)O`, the TGI in the assay with SR leukemia, with HCT-15 colon, in the assay with NCI-H226 lung, in the assay on OVCAR-4 ovarian, in the assay with SF-295 CNS and in the assay with ACHN renal was greater than 100 µM throughout. The TGI in the assay with UO-31 renal and with NCI-H23 lung was greater than 100 µM each time.

As to `COC(=O)Cc1cc(O)c(C/C=C(\C)CC/C=C(\C)C(O)C(=O)C=C(C)C)cc1O` (centres undefined), the TGI in the assay on SR leukemia was 41.6 µM; in the assay on NCI-H226 lung, 51.8 µM; with NCI-H460 lung, 48.3 µM; with OVCAR-4 ovarian, greater than 100 µM; in the assay with SF-539 CNS it was 40.5 µM; in the assay on SF-295 CNS, 55.1 µM. Besides, the TGI was 71 µM in the assay on ACHN renal, 46 µM in the assay on UO-31 renal and 93.3 µM with NCI-H23 lung.

Consider `O=C1N=c2ccccc2=C1c1c(O)[nH]c2ccccc12`, for which the TGI was 17.8 µM in the assay on SR leukemia; 19.6 µM with HCT-15 colon; greater than 100 µM in the assay on NCI-H226 lung; 59.3 µM in the assay on NCI-H460 lung; 29.9 µM with OVCAR-4 ovarian; greater than 100 µM with SF-295 CNS. Besides, the TGI in the assay on ACHN renal worked out at 37.1 µM; in the assay on UO-31 renal, 30.5 µM; in the assay with NCI-H23 lung, 69.2 µM.

Regarding `O=S(=O)(c1ccccc1)n1c2cc3cccnc3nc2c2cccnc21`, the TGI was 30.4 µM with SR leukemia; greater than 100 µM in the assay with HCT-15 colon; greater than 100 µM in the assay with NCI-H226 lung; greater than 100 µM in the assay on NCI-H460 lung; greater than 100 µM with OVCAR-4 ovarian; greater than 100 µM in the assay on SF-295 CNS. Also, the TGI in the assay on ACHN renal, in the assay with UO-31 renal and in the assay on NCI-H23 lung was greater than 100 µM throughout.

As for `COc1ccc(N=C2SC(=N/N=c3\sc4ccccc4n3C)SC2=Nc2ccc(OC)cc2)cc1`, the TGI in the assay with SR leukemia, with HCT-15 colon, with NCI-H226 lung, in the assay on NCI-H460 lung, with SF-539 CNS and in the assay on SF-295 CNS was greater than 100 µM throughout. The TGI in the assay on ACHN renal, in the assay with UO-31 renal and with NCI-H23 lung was greater than 100 µM throughout.
